Assay results published in ChEMBL document CHEMBL5625205, “3-Methoxy-2-phenylimidazo[1,2-b]pyridazines highly active against Mycobacterium tuberculosis and Mycobacterium marinum” (Eur J Med Chem, 2023).
In brackets after ≈: the same amount, converted by molar mass. Activity calls are given as the source filed them. The calls are words filed in the database; no cut-off is given here.

Assays:
[1] = test system: Mycobacterium tuberculosis; assay: Antimycobacterial activity against Mycobacterium tuberculosis H37Ra assessed as inhibition of bacterial growth measured for 5 days by luminometer; assay type: functional; settings: 120 h, time 5 day
[2] = test system: Mycobacterium marinum; assay: Antimycobacterial activity against Mycobacterium marinum assessed as inhibition of bacterial growth measured for 5 days by luminometer; assay type: functional; settings: 120 h, time 5 day
[3] = test system: Mycobacterium tuberculosis; assay: Antimycobacterial activity against Mycobacterium tuberculosis H37Ra infected in mouse assessed as reduction in relative light unit in lung at 30 to 300 mg/kg,po administrated once daily for 5 days; assay type: functional, organism-based; settings: dose 30-300 mg/kg, time 5.0 day

Row | SMILES | MIC90 [1] [µM] | MIC90 [2] [µM] | Activity [3]
1 | COc1cccc(COc2ccc3nc(-c4cccc(C(F)(F)F)c4)c(OC)n3n2)c1 | > 230 |  | 
2 | COc1cccc(CSc2ccc3nc(-c4cccc([N+](=O)[O-])c4)c(OC)n3n2)c1 | > 230 | > 230 | 
3 | COc1c(-c2ccc(F)cc2)nc2ccc(N(C)Cc3ccccc3)nn12 | 1.38 (≈ 0.5 µg/mL) | 1.38 (≈ 0.5 µg/mL) | 
4 | COc1c(-c2ccccc2)nc2ccc(SC)nn12 | 18.4 (≈ 4.99 µg/mL) | 36.9 (≈ 10 µg/mL) | 
5 | COc1c(-c2ccccc2)nc2ccc(Sc3ccccc3)nn12 | 150 (≈ 50 µg/mL) |  | 
6 | COc1c(C)nc2ccc(Oc3ccccc3)nn12 | > 117 |  | 
7 | COc1cccc(CNc2ccc3nc(-c4ccccc4F)c(OC)n3n2)c1 | 6.61 (≈ 2.5 µg/mL) | 6.61 (≈ 2.5 µg/mL) | 
8 | COc1ccc(-c2nc3ccc(SCc4ccccc4)nn3c2OC)cc1 | > 260 |  | 
9 | COc1cccc(COc2ccc3nc(-c4ccc(F)cc4)c(OC)n3n2)c1 | 2.64 (≈ 1 µg/mL) | 2.64 (≈ 1 µg/mL) | 
10 | COc1c(-c2ccc(F)cc2)nc2ccc(SCc3ccsc3)nn12 | 26.9 (≈ 9.99 µg/mL) | 5.38 (≈ 2 µg/mL) | 
11 | CN(Cc1ccccc1)c1ccc2nc(-c3ccc(C(F)(F)F)cc3)c(O)n2n1 | > 251 | 251 (≈ 100 µg/mL) | 
12 | COc1cccc(CNc2ccc3nc(-c4ccc(F)cc4)c(OC)n3n2)c1 | 6.61 (≈ 2.5 µg/mL) | 13.2 (≈ 4.99 µg/mL) | 
13 | COc1cccc(CSc2ccc3nc(-c4ccc(F)cc4)cn3n2)c1 | 27.4 (≈ 10 µg/mL) | 2.74 (≈ 1 µg/mL) | 
14 | CCOc1c(-c2ccccc2)nc2ccc(SCc3ccccc3)nn12 | 69.2 (≈ 25 µg/mL) | 69.2 (≈ 25 µg/mL) | 
15 | COc1cccc(CSc2ccc3nc(-c4ccc(F)cc4F)c(OC)n3n2)c1 | 15.1 (≈ 6.24 µg/mL) | 1.21 (≈ 0.5 µg/mL) | 
16 | COc1cccc(CNc2ccc3nc(-c4cccc(C(F)(F)F)c4)c(OC)n3n2)c1 | 23.3 (≈ 9.98 µg/mL) | 9.34 (≈ 4 µg/mL) | 
17 | Oc1ccccc1-c1nc2ccc(SCc3ccccc3)nn2c1Br | 243 (≈ 100 µg/mL) | 243 (≈ 100 µg/mL) | 
18 | COc1c(-c2ccccc2)nc2ccc(SCc3ccccc3)nn12 | 1.44 (≈ 0.5 µg/mL) | 0.72 (≈ 0.25 µg/mL) | 
19 | Cc1c(-c2ccccc2)nc2ccc(OCc3ccccc3)nn12 | 317 (≈ 100 µg/mL) | 317 (≈ 100 µg/mL) | 
20 | COc1ccc(CSc2ccc3nc(-c4ccc(Cl)c(Cl)c4)c(OC)n3n2)cc1 | > 220 | > 220 | 
21 | COc1cccc(CNc2ccc3nc(-c4cccc(F)c4)c(OC)n3n2)c1 | 52.9 (≈ 20 µg/mL) | 26.4 (≈ 9.99 µg/mL) | 
22 | COc1c(-c2ccccc2)nc2ccc(SCc3nc4ccccc4n3C)nn12 | 24.9 (≈ 10 µg/mL) | 250 (≈ 100 µg/mL) | 
23 | CN(Cc1ccccc1)c1ccc2nc(-c3ccc(F)cc3F)c(O)n2n1 | 273 (≈ 100 µg/mL) | > 273 | 
24 | CN(Cc1ccccc1)c1ccc2nc(-c3ccc(Br)cc3)c(O)n2n1 | 244 (≈ 99.9 µg/mL) | > 244 | 

Row | SMILES | MIC90 [1] [µM] | MIC90 [2] [µM] | Activity [3]
25 | COc1cccc(CS(=O)(=O)c2ccc3nc(-c4ccc(F)cc4)c(OC)n3n2)c1 | 234 (≈ 100 µg/mL) | 234 (≈ 100 µg/mL) | 
26 | COc1cccc(CNc2ccc3nc(-c4ccc(C)cc4)c(OC)n3n2)c1 | 13.4 (≈ 5.02 µg/mL) | 13.4 (≈ 5.02 µg/mL) | 
27 | COc1c(-c2ccccc2)nc2ccc(SCc3ccsc3)nn12 | 0.7 (≈ 0.247 µg/mL) | 1.41 (≈ 0.498 µg/mL) | 
28 | CN(Cc1ccccc1)c1ccc2nc(-c3ccc(Cl)cc3)c(O)n2n1 | 274 (≈ 100 µg/mL) | > 274 | 
29 | COc1c(-c2ccc(Cl)cc2)nc2ccc(N(C)Cc3ccccc3)nn12 | 6.6 (≈ 2.5 µg/mL) | 6.6 (≈ 2.5 µg/mL) | 
30 | COc1c(-c2ccccc2)nc2ccc(Cl)nn12 | 385 (≈ 100 µg/mL) |  | 
31 | CCOc1c(-c2ccccc2)nc2ccc(SCc3cccc(OC)c3)nn12 | 2.55 (≈ 0.998 µg/mL) | 1.28 (≈ 0.501 µg/mL) | 
32 | c1ccc(COc2ccc3nc(-c4ccccc4)cn3n2)cc1 | 332 (≈ 100 µg/mL) | > 330 | 
33 | COc1c(-c2cccc(N)c2)nc2ccc(N(C)Cc3ccccc3)nn12 | 34.8 (≈ 12.5 µg/mL) | 13.9 (≈ 5 µg/mL) | 
34 | COc1cccc(COc2ccc3nc(-c4ccc(C(F)(F)F)cc4)c(OC)n3n2)c1 | > 230 | > 230 | 
35 | COc1cccc(CSc2ccc3nc(-c4ccc(F)cc4)c(CN(C)C)n3n2)c1 | 23.7 (≈ 10 µg/mL) | 47.3 (≈ 20 µg/mL) | 
36 | c1ccc(CSc2ccc3nc(-c4ccccc4)cn3n2)cc1 | > 315 | > 315 | 
37 | COc1c(Cc2ccccc2)nc2ccc(SCc3cccc([N+](=O)[O-])c3)nn12 | > 245 | 24.6 (≈ 10 µg/mL) | 
38 | COc1c(-c2cccc([N+](=O)[O-])c2)nc2ccc(N(C)Cc3ccccc3)nn12 | > 250 | > 250 | 
39 | COCCOc1c(-c2ccccc2)nc2ccc(SCc3cccc(OC)c3)nn12 | 29.7 (≈ 12.5 µg/mL) | 119 (≈ 50.2 µg/mL) | 
40 | COc1c(-c2ccccc2)nc2ccc(SCc3cc(C)on3)nn12 | 284 (≈ 100 µg/mL) | 284 (≈ 100 µg/mL) | 
41 | COc1cccc(CSc2ccc3nc(-c4ccc(F)cc4F)c(CN4CCOCC4)n3n2)c1 | 207 (≈ 99.9 µg/mL) | 207 (≈ 99.9 µg/mL) | 
42 | COc1c(-c2ccc(Br)cc2)nc2ccc(N(C)Cc3ccccc3)nn12 | 5.91 (≈ 2.5 µg/mL) | 11.8 (≈ 5 µg/mL) | 
43 | COc1c(-c2ccccc2)nc2ccc(OCc3ccccc3)nn12 | 3.02 (≈ 1 µg/mL) | 1.51 (≈ 0.5 µg/mL) | 
44 | COc1cccc(CS(=O)(=O)c2ccc3nc(-c4ccc(F)cc4F)c(OC)n3n2)c1 | 225 (≈ 100 µg/mL) | 225 (≈ 100 µg/mL) | 
45 | COCCOc1c(-c2ccccc2)nc2ccc(SCc3ccccc3)nn12 | 255 (≈ 99.8 µg/mL) | 63.9 (≈ 25 µg/mL) | 
46 | N#Cc1c(-c2ccccc2)nc2ccc(OCc3ccccc3)nn12 | > 300 | > 300 | 
47 | COc1ccc(CSc2ccc3nc(-c4ccccc4)c(OC)n3n2)cc1 | 5.3 (≈ 2 µg/mL) | 5.3 (≈ 2 µg/mL) | 
48 | COc1cccc(CSc2ccc3nc(-c4ccc(Br)cc4)c(OC)n3n2)c1 | 11 (≈ 5 µg/mL) | 11 (≈ 5.02 µg/mL) | 

Row | SMILES | MIC90 [1] [µM] | MIC90 [2] [µM] | Activity [3]
49 | CN(Cc1ccccc1)c1ccc2nc(-c3ccccc3F)c(O)n2n1 | 144 (≈ 50.2 µg/mL) | 287 (≈ 100 µg/mL) | 
50 | Ic1c(-c2ccccc2)nc2ccc(OCc3ccccc3)nn12 | > 230 | > 230 | 
51 | COc1cccc(CSc2ccc3nc(-c4ccccc4F)c(OC)n3n2)c1 | 1.26 (≈ 0.498 µg/mL) | 0.15 (≈ 0.0593 µg/mL) | inactive
52 | COc1cccc(CSc2ccc3nc(-c4ccc(F)cc4F)c(CN(C)C)n3n2)c1 | 227 (≈ 100 µg/mL) | 227 (≈ 100 µg/mL) | 
53 | CN(C)Cc1c(-c2ccccc2)nc2ccc(SCc3ccccc3)nn12 | 6.68 (≈ 2.5 µg/mL) | 13.4 (≈ 5.02 µg/mL) | 
54 | COc1c(-c2ccccc2)nc2ccc(SCc3ccccn3)nn12 | 5.74 (≈ 2 µg/mL) | 2.87 (≈ 1 µg/mL) | 
55 | CCOc1c(-c2ccccc2F)nc2ccc(SCc3cccc(OC)c3)nn12 | 3.05 (≈ 1.25 µg/mL) | 3.05 (≈ 1.25 µg/mL) | 
56 | COc1c(Cc2ccccc2)nc2ccc(SCc3cccc(C)c3)nn12 | 87.9 (≈ 33 µg/mL) | 26.6 (≈ 9.99 µg/mL) | 
57 | CN(Cc1ccccc1)c1ccc2nc(-c3ccccc3)c(O)n2n1 | 303 (≈ 100 µg/mL) | > 303 | 
58 | CN(Cc1ccccc1)c1ccc2nc(-c3ccc(F)cc3)c(O)n2n1 | 144 (≈ 50.2 µg/mL) | 144 (≈ 50.2 µg/mL) | 
59 | COc1c(-c2ccccc2)nc2ccc(SCc3ccccc3Cl)nn12 | > 260 |  | 
60 | COc1cccc(CSc2ccc3nc(-c4ccc(Cl)c(Cl)c4)c(OC)n3n2)c1 | > 220 | > 220 | 
61 | COc1c(-c2ccc(C(F)(F)F)cc2)nc2ccc(N(C)Cc3ccccc3)nn12 | 6.06 (≈ 2.5 µg/mL) | 12.1 (≈ 4.99 µg/mL) | 
62 | COc1cccc(CNc2ccc3nc(-c4ccc(C(F)(F)F)cc4)c(OC)n3n2)c1 | 11.7 (≈ 5.01 µg/mL) | 23.3 (≈ 9.98 µg/mL) | 
63 | COc1c(-c2ccc(F)cc2F)nc2ccc(SCc3ccsc3)nn12 | 10.3 (≈ 4.01 µg/mL) | 2.57 (≈ 1 µg/mL) | 
64 | COc1cccc(CSc2ccc3nc(-c4ccc(F)cc4F)cn3n2)c1 | 261 (≈ 100 µg/mL) | 261 (≈ 100 µg/mL) | 
65 | COc1cccc(CNc2ccc3nc(-c4ccccc4)c(OC)n3n2)c1 | 6.94 (≈ 2.5 µg/mL) | 6.94 (≈ 2.5 µg/mL) | 
66 | COc1cccc(CSc2ccc3nc(-c4ccc(OC)c(OC)c4)c(OC)n3n2)c1 | > 220 | > 220 | 
67 | Brc1c(-c2ccccc2)nc2ccc(OCc3ccccc3)nn12 | > 260 | > 260 | 
68 | COc1cccc(CNc2ccc3nc(-c4cccc([N+](=O)[O-])c4)c(OC)n3n2)c1 | > 240 | > 240 | 
69 | O=c1oc2ccccc2c2nc3ccc(SCc4ccccc4)nn3c12 | 278 (≈ 99.9 µg/mL) | 278 (≈ 99.9 µg/mL) | 
70 | COc1ccc(CSc2ccc3nc(-c4ccc(F)cc4)c(OC)n3n2)cc1 | 6.32 (≈ 2.5 µg/mL) | 12.6 (≈ 4.98 µg/mL) | 
71 | COc1c(-c2ccccc2)nc2ccc(N(C)Cc3ccccc3)nn12 | 2.9 (≈ 0.999 µg/mL) | 1.45 (≈ 0.499 µg/mL) | 
72 | COc1cccc(CSc2ccc3nc(-c4ccc(Cl)cc4)c(OC)n3n2)c1 | 9.71 (≈ 4 µg/mL) | 3.03 (≈ 1.25 µg/mL) | 
